Laboratory results taken from the NIST ThermoML archive (doi:10.1021/acs.jced.5b00018).
Numbers after ± are expanded uncertainties.

Key:
[1] = refractive index (Na D-line) (dimensionless); wn = mass fraction of the nth substance listed; conditions: 100 kPa, Liquid, Standard Abbe refractometry
[2] = refractive index (Na D-line) (dimensionless); conditions: 100 kPa, Liquid, Standard Abbe refractometry

[Ca+2].[Cl-].[Cl-] [calcium chloride] + O
refractive index, [1]
Conditions	293.15 K	298.15 K	303.15 K	308.15 K	313.15 K	318.15 K
w1 = 0.01	1.3356 ± 0.0007	1.3353 ± 0.0007	1.3349 ± 0.0007	1.3344 ± 0.0007	1.3339 ± 0.0007	1.3331 ± 0.0007
w1 = 0.05	1.3442 ± 0.0007	1.3437 ± 0.0007	1.3431 ± 0.0007	1.3426 ± 0.0007	1.342 ± 0.0007	1.3414 ± 0.0007
w1 = 0.1	1.3568 ± 0.0007	1.3561 ± 0.0007	1.3555 ± 0.0007	1.3551 ± 0.0007	1.3546 ± 0.0007	1.3539 ± 0.0007
w1 = 0.15	1.3689 ± 0.0007	1.3686 ± 0.0007	1.368 ± 0.0007	1.3671 ± 0.0007	1.3667 ± 0.0007	1.3662 ± 0.0007
w1 = 0.2	1.3818 ± 0.0007	1.3814 ± 0.0007	1.3807 ± 0.0007	1.3802 ± 0.0007	1.3795 ± 0.0007	1.3789 ± 0.0007
w1 = 0.25	1.3945 ± 0.0007	1.3943 ± 0.0007	1.394 ± 0.0007	1.3933 ± 0.0007	1.3926 ± 0.0007	1.392 ± 0.0007

CCOC(C)=O [ethyl acetate] + O
refractive index, [1]
Conditions	293.15 K	298.15 K	303.15 K	308.15 K	313.15 K	318.15 K
w1 = 0.009	1.3341 ± 0.0007	1.3335 ± 0.0007	1.3331 ± 0.0007	1.3327 ± 0.0007	1.3321 ± 0.0007	1.3317 ± 0.0007
w1 = 0.027	1.3352 ± 0.0007	1.3348 ± 0.0007	1.3342 ± 0.0007	1.3337 ± 0.0007	1.3332 ± 0.0007	1.3326 ± 0.0007
w1 = 0.045	1.3368 ± 0.0007	1.3364 ± 0.0007	1.3358 ± 0.0007	1.3353 ± 0.0007	1.3346 ± 0.0007	1.3342 ± 0.0007
w1 = 0.064	1.3384 ± 0.0007	1.338 ± 0.0007	1.3377 ± 0.0007	1.3368 ± 0.0007	1.3358 ± 0.0007	1.3352 ± 0.0007
w1 = 0.082	1.3391 ± 0.0007	1.3388 ± 0.0007	1.3383 ± 0.0007	1.3378 ± 0.0007	1.3373 ± 0.0007	1.3365 ± 0.0007

[Cl-].[K+] [potassium chloride] + O
refractive index, [1]
Conditions	293.15 K	298.15 K	303.15 K	308.15 K	313.15 K	318.15 K
w1 = 0.01	1.3349 ± 0.0007	1.3345 ± 0.0007	1.334 ± 0.0007	1.3335 ± 0.0007	1.333 ± 0.0007	1.332 ± 0.0007
w1 = 0.05	1.3405 ± 0.0007	1.3401 ± 0.0007	1.3396 ± 0.0007	1.339 ± 0.0007	1.3384 ± 0.0007	1.3379 ± 0.0007
w1 = 0.1	1.3486 ± 0.0007	1.348 ± 0.0007	1.3476 ± 0.0007	1.347 ± 0.0007	1.3464 ± 0.0007	1.346 ± 0.0007
w1 = 0.15	1.3577 ± 0.0007	1.3571 ± 0.0007	1.3566 ± 0.0007	1.356 ± 0.0007	1.3554 ± 0.0007	1.355 ± 0.0007

[Cl-].[Na+] [sodium chloride] + O
refractive index, [1]
Conditions	293.15 K	298.15 K	303.15 K	308.15 K	313.15 K	318.15 K
w1 = 0.01	1.3365 ± 0.0007	1.3359 ± 0.0007	1.3354 ± 0.0007	1.3346 ± 0.0007	1.3339 ± 0.0007	1.3333 ± 0.0007
w1 = 0.05	1.3434 ± 0.0007	1.3428 ± 0.0007	1.3422 ± 0.0007	1.3414 ± 0.0007	1.3407 ± 0.0007	1.3398 ± 0.0007
w1 = 0.1	1.3521 ± 0.0007	1.3514 ± 0.0007	1.3508 ± 0.0007	1.3502 ± 0.0007	1.3495 ± 0.0007	1.3485 ± 0.0007
w1 = 0.15	1.361 ± 0.0007	1.3604 ± 0.0007	1.3596 ± 0.0007	1.359 ± 0.0007	1.358 ± 0.0007	1.3572 ± 0.0007
w1 = 0.2	1.3702 ± 0.0007	1.3692 ± 0.0007	1.3683 ± 0.0007	1.3678 ± 0.0007	1.367 ± 0.0007	1.3661 ± 0.0007
w1 = 0.25	1.3795 ± 0.0007	1.3788 ± 0.0007	1.378 ± 0.0007	1.3773 ± 0.0007	1.3767 ± 0.0007	1.3757 ± 0.0007

O [water]
[2]
Conditions	refractive index
293.15 K	1.3335 ± 0.0007
298.15 K	1.333 ± 0.0007
303.15 K	1.3323 ± 0.0007
308.15 K	1.332 ± 0.0007
313.15 K	1.3316 ± 0.0007
318.15 K	1.3312 ± 0.0007

O [water] + CCOC(C)=O
[1], w2 = 0
Conditions	refractive index
293.15 K	1.3335 ± 0.0007
298.15 K	1.333 ± 0.0007
303.15 K	1.3323 ± 0.0007
308.15 K	1.332 ± 0.0007
313.15 K	1.3316 ± 0.0007
318.15 K	1.3312 ± 0.0007

O [water] + OC[C@H]1O[C@H](O)[C@H](O)[C@@H](O)[C@@H]1O
[1], w2 = 0
Conditions	refractive index
293.15 K	1.3335 ± 0.0007
298.15 K	1.333 ± 0.0007
303.15 K	1.3323 ± 0.0007
308.15 K	1.332 ± 0.0007
313.15 K	1.3316 ± 0.0007
318.15 K	1.3312 ± 0.0007

O [water] + [Ca+2].[Cl-].[Cl-]
[1], w2 = 0
Conditions	refractive index
293.15 K	1.3335 ± 0.0007
298.15 K	1.333 ± 0.0007
303.15 K	1.3323 ± 0.0007
308.15 K	1.332 ± 0.0007
313.15 K	1.3316 ± 0.0007
318.15 K	1.3312 ± 0.0007

O [water] + [Cl-].[K+]
[1], w2 = 0
Conditions	refractive index
293.15 K	1.3335 ± 0.0007
298.15 K	1.333 ± 0.0007
303.15 K	1.3323 ± 0.0007
308.15 K	1.332 ± 0.0007
313.15 K	1.3316 ± 0.0007
318.15 K	1.3312 ± 0.0007

O [water] + [Cl-].[Na+]
[1], w2 = 0
Conditions	refractive index
293.15 K	1.3335 ± 0.0007
298.15 K	1.333 ± 0.0007
303.15 K	1.3323 ± 0.0007
308.15 K	1.332 ± 0.0007
313.15 K	1.3316 ± 0.0007
318.15 K	1.3312 ± 0.0007

OC[C@H]1O[C@H](O)[C@H](O)[C@@H](O)[C@@H]1O [α-D-glucose] + O
refractive index, [1]
Conditions	w1 = 0.01	w1 = 0.05	w1 = 0.1	w1 = 0.15	w1 = 0.2	w1 = 0.3	w1 = 0.4	w1 = 0.5
293.15 K	1.336 ± 0.0007	1.3412 ± 0.0007	1.3481 ± 0.0007	1.3553 ± 0.0007	1.3623 ± 0.0007	1.3775 ± 0.0007	1.3947 ± 0.0007	1.4119 ± 0.0007
298.15 K	1.3355 ± 0.0007	1.3406 ± 0.0007	1.3475 ± 0.0007	1.3548 ± 0.0007	1.3617 ± 0.0007	1.3768 ± 0.0007	1.3939 ± 0.0007	1.4106 ± 0.0007
303.15 K	1.3349 ± 0.0007	1.3401 ± 0.0007	1.3469 ± 0.0007	1.3542 ± 0.0007	1.361 ± 0.0007	1.3763 ± 0.0007	1.3932 ± 0.0007	1.41 ± 0.0007
308.15 K	1.3345 ± 0.0007	1.3395 ± 0.0007	1.3463 ± 0.0007	1.3535 ± 0.0007	1.3604 ± 0.0007	1.3757 ± 0.0007	1.3925 ± 0.0007	1.4098 ± 0.0007
313.15 K	1.3337 ± 0.0007	1.3388 ± 0.0007	1.3455 ± 0.0007	1.3527 ± 0.0007	1.3596 ± 0.0007	1.3747 ± 0.0007	1.3919 ± 0.0007	1.4086 ± 0.0007
318.15 K	1.3329 ± 0.0007	1.3379 ± 0.0007	1.3447 ± 0.0007	1.3519 ± 0.0007	1.3588 ± 0.0007	1.3739 ± 0.0007	1.3907 ± 0.0007	1.4073 ± 0.0007
